Legend:
[1] = Paper chromatograms of rat urine following IM administration, antibiotically active metabolites; format: in vivo; conditions: urine 0-2 and 2-4 hours; for antibiotically active metabolites in urine (spots on paper chromatogram): system No. 9 (butyl acetate:n-butanol:glacial acetic acid:H2O)
Description: Paper chromatograms were run on rat urine collected between 0 and 2 and between 2 and 4 hours following IM administration of BL-S1057, 1058 and 643, for the detection of antibiotically active metabolites using descending chromatography with system No. 9 (butyl acetate:n-butanol:glacial acetic acid:H2 O = 80:15:40:24).

[2] = Paper strip chromatography; format: physicochemical; conditions: 37° C.; 0 and 1 hour; 0.2 mg./ml.
[3] = Liquid chromatography, hydrolysis in buffer; format: physicochemical; conditions: pH 6 buffer; 1 mg./ml.; 0 hours
Description: f. Liquid chromatography = 100% hydrolyzed in pH 6.1 buffer within 1 hour at room temperature (concentration = 1 mg./ml.)
d. Liquid chromatography (1 mg./ml. in pH 6 buffer)

Cc1nnc(SCC2=C(C(=O)O)N3C(=O)C(NC(=O)[C@H](N)c4ccc(O)cc4)C3SC2)s1 (some centres unmarked) [BL-S643, reference compound]
antibiotically active metabolites in urine (spots on paper chromatogram) [1]: A single, identical spot was observed

Cc1nnc(SCC2=C(C(=O)O)N3C(=O)C(N4C(=O)[C@@H](c5ccc(O)cc5)NC4c4ccco4)C3SC2)s1 (some centres unmarked) [BL-S1057]
hydrolysis of the derivatives to the parent compound (BL-S643) [1]: complete hydrolysis
antibiotically active metabolites in urine (spots on paper chromatogram) [1]: A single, identical spot was observed
Paper strip chromatography [2]: Primarily 1 zone at Rf of BL-S643

Cc1nnc(SCC2=C(C(=O)O)N3C(=O)C(N4C(=O)[C@@H](c5ccc(O)cc5)NC4c4ccc(S(=O)(=O)O)o4)C3SC2)s1 (some centres unmarked) [BL-S1058]
hydrolysis of the derivatives to the parent compound (BL-S643) [1]: complete hydrolysis
antibiotically active metabolites in urine (spots on paper chromatogram) [1]: A single, identical spot was observed
% Hydrolyzed (liquid chromatography) [3]: 25.4%
Paper strip chromatography [2]: Primarily 1 zone at Rf of BL-S643 at 0 and 1 hour at 37 °C (concentration is 0.2 mg./ml.) There is evidence of a second zone

From US4091213A, “7-Cyclizedamino-3-heterothiomethyl cephalosporin derivatives” (Bristol-Myers Company, priority 1977, dated 1978)
